Laboratory results taken from US8551984B2, “Aminopyrimidines as SYK inhibitors” (Merck Sharp & Dohme Corp., priority 2009, dated 2013).
pIC50: −log10 of the molar value.

Molecular target: recombinant human SYK (GST-hSYK fusion protein) (Homo sapiens, UniProt P43405)
Test: biochemical
Settings: rhSYK Activity
Excerpt: Homogeneous Time-Resolved Fluorescence (HTRF) Assay for the Recombinant Human SYK Enzyme:

Row | SMILES | pIC50 (Table 33C) | pIC50 (Table 33D) | further results
1 | Cc1cc(Nc2nccc(C(F)(F)F)n2)cc(-c2cnc(C3(O)CCC(C(=O)O)C(C)(C)C3C)s2)c1 (stereo not shown) [Example 33A-75] | – | – | pIC50 (Table 33-A): > 7.00
2 | Cc1cc(Nc2nccc(C(F)(F)F)n2)cc(-c2cnc(C3(O)CC(C(=O)O)C3)s2)c1 (stereo not shown) [Example 33B-1] | – | – | pIC50 (Table 33B): > 7.00
3 | Cc1cc(Nc2nccc(C(F)(F)F)n2)cc(-c2cnc(C3(O)CCCC(C(=O)O)C(C)(C)C3)s2)c1 (stereo not shown) [Example 33B-11] | – | – | pIC50 (Table 33B): > 7.00
4 | Cc1cc(Nc2nccc(C)n2)cc(-c2cnc(C3(O)CCC(C(=O)O)C(C(C)C)C3)s2)c1 (stereo not shown) [Example 33B-35] | – | – | pIC50 (Table 33B): > 7.00
5 | Cc1cc(Nc2nccc(C)n2)cc(-c2cnc(C3(O)CCC(C(=O)O)C(c4ccccc4)C3)s2)c1 (stereo not shown) [Example 33B-37] | – | – | pIC50 (Table 33B): > 7.00
6 | Cc1cc(Nc2nccc(C(F)(F)F)n2)cc(-c2cnc(C3(O)CC4(CC(C(=O)O)C4)C3)s2)c1 (stereo not shown) [Example 33C-1] | > 7.00 | – | –
7 | Cc1cc(Nc2nccc(C(F)(F)F)n2)cc(-c2cnc(C3(O)CC4CCC(C3)C4C(=O)O)s2)c1 (stereo not shown) [Example 33C-2] | > 7.00 | – | –
8 | Cc1cc(Nc2nccc(C(F)(F)F)n2)cc(-c2cnc(C3(O)C4CCCC3CC(C(=O)O)C4)s2)c1 (stereo not shown) [Example 33C-3] | > 7.00 | – | –
9 | Cc1cc(Nc2nccc(C(F)(F)F)n2)cc(-c2cnc(C3(O)CC[C@H]4C(C(=O)O)[C@H]43)s2)c1 (stereo partly shown) [Example 33C-6] | > 7.00 | – | –
10 | Cc1cc(Nc2nccc(C(F)(F)F)n2)cc(-c2cnc(C3(O)C[C@@H]4C(C(=O)O)[C@@H]4C3)s2)c1 (stereo partly shown) [Example 33C-9] | > 7.00 | – | –
11 | CCOC(=O)C1[C@H]2CC(O)(c3ncc(-c4cc(C)cc(Nc5nccc(C(F)(F)F)n5)c4)s3)C[C@@H]12 (stereo partly shown) [Example 33C-11] | > 7.00 | – | –
12 | Cc1cc(Nc2nccc(C(F)(F)F)n2)cc(-c2cnc(C3(O)CNC3)s2)c1 [Example 33C-13] | > 7.00 | – | –
13 | Cc1cc(Nc2nccc(C(F)(F)F)n2)cc(-c2cnc(C3(O)CCN(c4ncccc4C(=O)O)CC3)s2)c1 [Example 33C-15] | > 7.00 | – | –
14 | CCOC(=O)c1cccnc1N1CCC(O)(c2ncc(-c3cc(C)cc(Nc4nccc(C(F)(F)F)n4)c3)s2)CC1 [Example 33C-16] | 6.00 to 7.00 | – | –
15 | Cc1cc(Nc2nccc(C)n2)cc(-c2cnc(C3(O)CCC4(CC3)OCCO4)s2)c1 [Example 33C-17] | > 7.00 | – | –
16 | Cc1cc(Nc2nccc(C)n2)cc(-c2cnc(C3(O)CC4CCC3CC4C(=O)O)s2)c1 (stereo not shown) [Example 33C-18] | > 7.00 | – | –
17 | Cc1cc(Nc2nccc(C(F)(F)F)n2)cc(-c2cnc(C(C)(O)CCC(C)(C)C(=O)O)s2)c1 (stereo not shown) [Example 33D-1] | – | > 7.00 | –

Row | SMILES | pIC50 (Table 33C) | pIC50 (Table 33D) | further results
18 | COC(=O)C(C)(C)CCC(C)(O)c1ncc(-c2cc(C)cc(Nc3nccc(C(F)(F)F)n3)c2)s1 (stereo not shown) [Example 33D-4] | – | > 7.00 | –
19 | Cc1cc(Nc2nccc(C(F)(F)F)n2)cc(-c2cnc(C(C)(O)COC(C)(C)C(=O)O)s2)c1 (stereo not shown) [Example 33D-7] | – | > 7.00 | –
20 | COC(=O)C(C)(C)OCC(C)(O)c1ncc(-c2cc(C)cc(Nc3nccc(C(F)(F)F)n3)c2)s1 (stereo not shown) [Example 33D-8] | – | > 7.00 | –
21 | Cc1cc(Nc2nccc(C(F)(F)F)n2)cc(-c2cnc(C(C)(O)CC(C)(C)C(=O)O)s2)c1 (stereo not shown) [Example 33D-9] | – | > 7.00 | –
22 | Cc1cc(Nc2nccc(C(F)(F)F)n2)cc(-c2cnc(C(C)(O)CCC(=O)O)s2)c1 (stereo not shown) [Example 33D-10] | – | > 7.00 | –
23 | Cc1cc(Nc2nccc(C(F)(F)F)n2)cc(-c2cnc(C(C)(O)c3ccccc3OCC(=O)O)s2)c1 (stereo not shown) [Example 33D-11] | – | > 7.00 | –
24 | Cc1cc(Nc2nccc(C(F)(F)F)n2)cc(-c2cnc(C(C)(O)c3ccc(OCC(=O)O)cc3)s2)c1 (stereo not shown) [Example 33D-12] | – | > 7.00 | –
25 | Cc1cc(Nc2nccc(C(F)(F)F)n2)cc(-c2cnc(C(C)(O)c3ccc(OC(C)C(=O)O)cc3)s2)c1 (stereo not shown) [Example 33D-13] | – | > 7.00 | –
26 | COC(=O)c1ccc(C(C)(O)c2ncc(-c3cc(C)cc(Nc4nccc(C(F)(F)F)n4)c3)s2)cc1 (stereo not shown) [Example 33D-17] | – | > 7.00 | –
27 | Cc1cc(Nc2nccc(C(F)(F)F)n2)cc(-c2cnc(C(C)(O)Cc3ccc(C(=O)O)cc3)s2)c1 (stereo not shown) [Example 33D-18] | – | > 7.00 | –
28 | Cc1cc(Nc2nccc(C(F)(F)F)n2)cc(-c2cnc(C(C)(O)c3c(C)nn(CCC(=O)O)c3C)s2)c1 (stereo not shown) [Example 33D-19] | – | > 7.00 | –
29 | Cc1cc(Nc2nccc(C(F)(F)F)n2)cc(-c2cnc(C(C)(O)c3ccc(C(=O)O)s3)s2)c1 (stereo not shown) [Example 33D-20] | – | > 7.00 | –
30 | Cc1cc(Nc2nccc(C(F)(F)F)n2)cc(-c2cnc(C(O)C(C)(C)N3CCC(C(=O)O)CC3)s2)c1 (stereo not shown) [Example 33D-23] | – | > 7.00 | –
31 | Cc1cc(Nc2nccc(C(F)(F)F)n2)cc(-c2cnc(C(O)(c3ccc(/C=C/C(=O)O)cc3)C3CC3)s2)c1 (stereo not shown) [Example 33D-24] | – | > 7.00 | –
32 | Cc1cc(Nc2nccc(C(F)(F)F)n2)cc(-c2cnc(C(O)(CCCC(=O)O)c3ccncc3)s2)c1 (stereo not shown) [Example 33D-25] | – | > 7.00 | –
33 | CCOC(=O)C1CC=C(c2ncc(-c3cccc(Nc4nccc(C(F)(F)F)n4)c3)s2)CC1 (stereo not shown) [Example 36A-1] | – | – | pIC50 (Table 36A): 6.00 to 7.00
34 | Cc1cc(Nc2nccc(C(F)(F)F)n2)cc(-c2cnc(C3=CCC(C(=O)O)CC3)s2)c1 (stereo not shown) [Example 36A-3] | – | – | pIC50 (Table 36A): > 7.00
